Test results as given in the supplement of paper PMC10702517.
± gives the standard deviation.

Experiment: chemical recovery from spiked human plasma; higher = better extraction
Details: pooled human plasma
[1] = extraction method: SPE only (HLB 96-well)
[2] = extraction method: PES+SPE (3 d PDMS equilibration then HLB SPE)
[3] = extraction method: solvent precipitation (ACN + hexane)
[4] = extraction method: SPE only (HLB 96-well), PES comparison experiment

| chemical recovery [1] [%] | chemical recovery [2] [%] | chemical recovery [4] [%] | Compound | chemical recovery [3] [%] |
| --- | --- | --- | --- | --- |
| 53.1 ± 4 |  |  | O=C(O)CCCCCCCC(=O)O [Azelaic-acid] |  |
| 41.4 ± 2.8 | 40.3 ± 5.8 |  | COC(=O)c1ccc(CNS(C)(=O)=O)cc1S(=O)(=O)NC(=O)Nc1nc(OC)cc(OC)n1 [Mesosulfuron-methyl] | 74.9 ± 5.7 |
| 30.1 ± 3.9 | 32.2 ± 9.6 | 41.1 ± 8.4 | CC(C)c1c(C(=O)Nc2ccccc2)c(-c2ccccc2)c(-c2ccc(F)cc2)n1CC[C@@H](O)C[C@@H](O)CC(=O)O [Atorvastatin] | 61.7 ± 3 |
| 67.7 ± 4.7 | 72.3 ± 6.7 |  | COc1nc(NC(=O)NS(=O)(=O)c2ccccc2C(F)(F)F)nc(C(F)(F)F)n1 [Tritosulfuron] | 76.1 ± 3.9 |
| 38.9 ± 2.4 | 50.7 ± 4.7 |  | CCNc1nc(N)nc(Cl)n1 [Desisopropylatrazine] |  |
| 14.8 ± 5.5 | 20.1 ± 4.3 |  | CCNc1nc(NCC)[nH]c(=O)n1 [Simazine-2-Hydroxy] | 75.6 ± 6 |
| 46.9 ± 2.6 | 49.2 ± 5 | 49.4 ± 5.9 | CN(C)C(=O)Nc1ccccc1 [Fenuron] | 74.6 ± 2.4 |
| 36.7 ± 2.9 | 35.4 ± 4.9 |  | CCOC(=O)C(C#N)=C(c1ccccc1)c1ccccc1 [Etocrylene] | 49.9 ± 9.2 |
| 1.14 ± 0.085 |  |  | O=C(OCc1ccccc1)c1ccccc1O [Benzyl salicylate] | 26.5 ± 2.6 |
| 26.5 ± 9.6 |  |  | CCCCCCOC(=O)c1ccccc1C(=O)c1ccc(N(CC)CC)cc1O [Uvinul-A-Plus] |  |
| 36.7 ± 2.8 | 43.5 ± 3.9 |  | O=C(O)C(F)(F)C(F)(F)C(F)(F)OC(F)(F)F [Perfluoro-4-methoxybutanoic-acid] | 78.7 ± 3.5 |
| 3.34 ± 1.2 | 53.3 ± 3.7 |  | CCc1c(Br)c(Br)c(Br)c(Br)c1Br [Pentabromoethylbenzene] |  |
|  |  | 11 ± 2.6 | c1ccc2c(c1)Cc1ccccc1-2 [Fluorene] |  |
| 60.1 ± 3.9 | 60.3 ± 4 | 38.1 ± 4.1 | CN(Cc1cnc2nc(N)nc(N)c2n1)c1ccc(C(=O)N[C@@H](CCC(=O)O)C(=O)O)cc1 [Methotrexate] |  |
| 24.9 ± 3.3 |  |  | COC(=O)CCc1cc(C(C)(C)C)c(O)c(C(C)(C)C)c1 [Methyl-3-(3,5-di-tert-butyl-4-hydroxyphenyl)propionate] | 57.6 ± 7 |
|  | 0.213 ± 0.049 |  | O=P(O)(O)Oc1ccccc1 [Phenylphosphate] |  |
| 30.3 ± 3.4 |  |  | CC(=O)OCC(COC(C)=O)OC(C)=O [Triacetin] |  |
| 3.21 ± 3.3 |  | 6 ± 3.7 | CCCCCCCCCCC[C@@H](C[C@@H]1OC(=O)[C@H]1CCCCCC)OC(=O)[C@H](CC(C)C)NC=O [Orlistat] |  |
|  |  | 79.9 ± 19 | O=C(O)Cc1c[nH]c2ccccc12 [Indole-3-acetic acid] |  |
| 77.3 ± 28 |  |  | Cn1cnc2c1c(=O)[nH]c(=O)n2C [Theobromine] |  |
| 49.5 ± 3.9 | 53 ± 3.3 |  | Cc1nnc(-c2ccccc2)c(=O)[nH]1 [Metamitron-desamino] | 73.9 ± 3.2 |
| 53.4 ± 0.92 | 47.4 ± 4.3 |  | O=C1CCCCCCCCCCCN1 [Dodecane-12-lactam] | 66.7 ± 1.7 |
| 36.5 ± 3.8 | 50.6 ± 7.1 |  | N[C@@H](Cc1cc(I)c(Oc2cc(I)c(O)c(I)c2)c(I)c1)C(=O)O [L-Thyroxine] | 30.8 ± 3.3 |

Second part, the compound before the results:

| Compound | chemical recovery [1] [%] | chemical recovery [2] [%] | chemical recovery [4] [%] | chemical recovery [3] [%] |
| --- | --- | --- | --- | --- |
| Cc1cnc2ccc3c(nc(N)n3C)c2n1 [2-Amino-3,8-dimethylimidazo-[4,5-f]quinoxaline (MeIQx)] | 49.1 ± 2.6 | 48.7 ± 6 |  | 72.4 ± 3.3 |
| Cc1cc(C)nc(Nc2ccccc2)n1 [Pyrimethanil] | 31.2 ± 2.5 | 51.1 ± 7.5 |  | 61.9 ± 3 |
| O=S(=O)(O)c1ccc2ccc(S(=O)(=O)O)cc2c1 [2,7-Naphthalenedisulfonic acid] | 60.6 ± 17 |  |  | 72.8 ± 11 |
| CC(=O)c1ccc2ccccc2c1 [2-Acetonaphthone] |  |  | 80.9 ± 10 |  |
| CNC1(c2ccccc2Cl)CCCCC1=O (centres undefined) [Ketamine] | 32.2 ± 2.1 | 10.8 ± 4.5 | 45.4 ± 6.8 | 59 ± 2.7 |
| Oc1ccc(C(c2ccc(O)cc2)(C(F)(F)F)C(F)(F)F)cc1 [Bisphenol-AF] | 51.2 ± 7.6 | 86.8 ± 4.4 |  | 41.6 ± 2.4 |
| Cc1c(C=O)c(=O)n(-c2ccccc2)n1C [4-Formyl-antipyrine] | 34.4 ± 4.1 | 41.3 ± 3.5 |  | 69.5 ± 2.1 |
| c1ccc2cc(-c3cc4ccccc4s3)ccc2c1 [2-(2-Naphthalenyl)benzothiophene] | 0.402 ± 0.15 | 59.8 ± 2.4 |  | 23.4 ± 1 |
| CNC(=O)Oc1ccccc1OC(C)C [Propoxur] | 37.5 ± 0.59 | 33.3 ± 8.7 |  | 46.7 ± 3.7 |
| c1ccc2c(c1)ccc1sc3ccccc3c12 [Benzo[b]naphtho(1,2-d)thiophene] | 0.745 ± 0.2 |  |  | 20.4 ± 2.6 |
| CCOP(=S)(OCC)SCCSCC [Disulfoton] | 4.52 ± 2 |  |  |  |
| CCCCCOC(=O)c1ccccc1C(=O)OCCCCC [Di-n-pentylphthalate] | 29.6 ± 6.2 |  |  |  |
| COP(=O)(OC)O/C(C)=C/C(=O)N(C)C [Dicrotophos] | 37.3 ± 0.93 | 38.5 ± 3.5 |  | 59.3 ± 8.9 |
| Oc1ccc2[nH]ccc2c1 [5-Hydroxyindole] |  |  |  | 39.3 ± 5.3 |
| O=C(O)C1C(C(=O)O)C2(Cl)C(Cl)=C(Cl)C1(Cl)C2(Cl)Cl (centres undefined) [Chlorendic-acid] | 23.9 ± 3.7 | 27 ± 6.5 |  | 28.2 ± 7.5 |
| OCCN1CCN(CCC=C2c3ccccc3Sc3ccc(C(F)(F)F)cc32)CC1 [Flupentixol] |  |  |  | 51.7 ± 2.5 |
| C[N+](C)(C)CCCl [Chlormequat] | 0.778 ± 0.52 | 0.51 ± 0.024 | 10.2 ± 8.2 | 85 ± 12 |
| O=C1C[C@@H]2OCC=C3CN4CC[C@]56c7ccccc7N1[C@H]5[C@H]2[C@H]3C[C@H]46 [Strychnine] |  |  |  | 59.5 ± 4.5 |
| CCC(C)n1c(=O)[nH]c(C)c(Br)c1=O (centres undefined) [Bromacil] | 49.3 ± 3 | 64.5 ± 4.7 |  | 72.7 ± 2.8 |
| c1ccc2nc3ccccc3cc2c1 [Acridine] | 28.4 ± 1.4 | 39.7 ± 8 | 51.6 ± 11 | 49.6 ± 2.4 |
| CC(C)c1ccc(N)cc1 [4-Isopropylaniline] | 15.1 ± 2.4 | 6.67 ± 1.6 | 18.2 ± 5.3 | 23.6 ± 3.4 |
| COCCOCCO [Diethyleneglycolmonomethylether] | 1.78 ± 2.6 |  |  |  |
| NC(=O)C(F)(F)C(F)(F)F [Pentafluoropropionamide] | 0.923 ± 0.9 | 9.12 ± 7.6 |  | 0.174 ± 0.24 |
| Sc1ncnc2nc[nH]c12 [6-Mercaptopurine] | 0.069 ± 0.0096 | 0.00575 ± 0.005 |  | 0.144 ± 0.25 |

| Compound | chemical recovery [1] [%] | chemical recovery [2] [%] | chemical recovery [4] [%] | chemical recovery [3] [%] |
| --- | --- | --- | --- | --- |
| Nc1ccc(Cc2ccc(N)cc2)cc1 [4,4'-Methylenedianiline] | 9.55 ± 0.81 |  |  | 31.9 ± 11 |
| Cc1c2ccccc2cc2c1cc(Br)c1ccccc12 [5-Bromo-7-methylbenzo[a]anthracene] | 1.01 ± 0.069 |  |  | 58.3 ± 3.7 |
| CCN(CC)c1ccc2c(C)cc(=O)oc2c1 [7-Diethylamino-4-methylcoumarin] | 94 ± 5.9 | 65.9 ± 13 | 47.7 ± 7.5 | 78.3 ± 2.5 |
| O=C(O)C(F)(F)C(F)(F)C(F)(F)C(F)(F)C(F)(F)C(F)(F)C(F)(F)F [Perfluorooctanoic acid] | 30.2 ± 2.8 |  | 33.6 ± 8.8 | 89.3 ± 19 |
| O=C(O)c1cccc(C(=O)O)c1 [Isophthalic-acid] |  |  |  | 12.5 ± 5.4 |
| Clc1ccc(C(c2ccc(Cl)cc2)C(Cl)(Cl)Cl)cc1 [4,4-DDT] |  |  | 52.8 ± 20 |  |
| O=C(O)CCC(F)(F)C(F)(F)C(F)(F)F [3.3-FTCA] | 0.288 ± 0.082 | 2.63 ± 2.7 |  |  |
| CCNc1nc(NC(C)C)[nH]c(=O)n1 [2-Hydroxyatrazine] | 29.1 ± 3.5 | 36.1 ± 4.4 | 44.3 ± 8.2 | 76.5 ± 3.2 |
| CC1=NNC(=O)N(/N=C/c2cccnc2)C1 [Pymetrozine] | 13.5 ± 3.4 |  |  | 75.4 ± 2.9 |
| CCN(CC)c1ccccc1 [N,N-Diethylaniline] | 5.76 ± 3.4 | 0.987 ± 1.6 |  | 0.0912 ± 0.079 |
| N#Cc1c[nH]cc1-c1cccc2c1OC(F)(F)O2 [Fludioxonil] | 40.1 ± 3.5 | 67.2 ± 4.7 |  | 51.4 ± 2.9 |
| NCCN1CCNCC1 [2-(Piperazin-1-yl)ethanamine] |  |  | 1.9 ± 2.2 |  |
| O=C(O)C(F)(F)C(F)(F)F [Perfluoropropanoic-acid] | 3.57 ± 2.9 | 2.17 ± 0.57 |  | 86.2 ± 7.5 |
| CCCSP(=O)(OCC)Oc1ccc(Br)cc1Cl (centres undefined) [Profenofos] | 39.9 ± 5.7 |  |  |  |
| Cc1cc(-c2ccc(N)c(C)c2)ccc1N [3,3'-Dimethylbenzidine] | 37.1 ± 6.7 |  | 20.3 ± 2.9 | 61.7 ± 6.9 |
| N=C1NCCN1Cc1ccc(Cl)nc1 [Imidacloprid-guanidine] | 26.9 ± 4.3 |  |  | 73 ± 3 |
| Cc1cccc2ccccc12 [1-Methylnaphthalene] | 2.62 ± 2 |  |  |  |
| CC[C@@H](C(=O)[C@@H](C)[C@@H](O)[C@H](C)[C@@H]1O[C@@H]([C@@H](CC)C(=O)O)CC[C@@H]1C)[C@H]1O[C@]2(C=C[C@@H](O)[C@]3(CC[C@@](C)([C@H]4CC[C@](O)(CC)[C@H](C)O4)O3)O2)[C@H](C)C[C@@H]1C [Salinomycin] | 26.7 ± 6.9 |  |  | 51.9 ± 13 |
| CCn1cc[n+](C)c1 [1-Ethyl-3-methyl-imidazolium] | 0.856 ± 0.42 |  |  |  |
| CC(c1ccc(O)cc1)(c1ccc(O)cc1)c1ccc(O)cc1 [1,1,1-Tris(4-hydroxyphenyl)ethane] | 43.2 ± 4.1 | 59.9 ± 5 |  | 43.3 ± 2.1 |
| CC[S+]([O-])CCSP(=O)(OC)OC (centres undefined) [Demeton-S-methyl-sulfoxide] | 30.2 ± 2.2 | 35.2 ± 3.8 |  | 42.7 ± 12 |
| CNC(=C[N+](=O)[O-])NCCSCc1ccc(CN(C)C)o1 [Ranitidine] |  |  |  | 65.6 ± 6.1 |
| CNC(=O)Oc1cccc2c1OC(C)(C)C2 [Carbofuran] | 43.6 ± 1.7 | 41.4 ± 4.8 |  | 47.2 ± 7 |
| CCC(C)(C)c1cc(-n2nc3ccccc3n2)c(O)c(C(C)(C)CC)c1 [UV-328] | 1.74 ± 0.56 |  |  |  |
